The values below come from patent publication US20130136778A1, “PTEROSTILBENE (PTER) FOR USE IN THE PREVENTION AND/OR TREATMENT OF SKIN DISEASES, DAMAGES OR INJURIES” (GREEN MOLECULAR, S.L., priority 2009, published 2013).

The assay deals with BALB/c mice. The assay is described as follows: Contact hypersensitivity induced by oxazolone (ear edema). To be noted: FIG. 22; 1 μmol polyphenols, 20 mg diprosone; applied after oxazolone. The format is in vivo. The protocol: The edema was calculated as the difference between the thickness that was produced in the ears, before the outcomes of the reaction, and their thickness 24 hours later, and it was measured with a vernier caliper.
The change was expressed as the relative increase in relation to day 0.
The application of oxazolone after sensitization to the same substance produces a reaction of hypersensitivity by contact, which appears as an eczematous reaction, with infiltration of lymphocytes and macrophages, with edema of the epidermis.
The BALB/c mice are sensitized on day 0 through the application, on the shaved abdomen, of 100 μL of oxazolone at 1.5% in acetone (w/v). Prior to the induction for hypersensitization, the thickness of the ear was measured with the help of a vernier caliper (Mitutoyo micrometer). The reaction was caused on day 7 by applying 20 μL of 2.5% oxazolone in ethanol (10 μL to each side of the right ear).
As a control measure the left ear was used, to which 20 μL of ethanol was applied. And a standard treatment, Diprosone® cream was used: (Schering Plough B. V., Utrecht, The Netherlands), that contains 0.5 mg de betamethasone/g. […]

With `COc1cc(/C=C/c2ccc(O)cc2)cc(OC)c1` [PTER, 3,5-dimethoxy-4′-hydroxy-trans-resveratrol], the “edema of the ear / inflammatory changes induced by oxazolone” value was “could prevent inflammatory changes as a result of inflammation induced by oxazolone”.
